Results reported in PMC5193077, “An Allosteric Potentiator of the Dopamine D1 Receptor Increases Locomotor Activity in Human D1 Knock-In Mice without Causing Stereotypy or Tachyphylaxis” (The Journal of Pharmacology and Experimental Therapeutics, 2017).
Where a name gives a salt, the structure may show the parent alone.

Legend:
hD1 mice [1] = experiment: Locomotor activity (LMA) in hD1 mice; format: in vivo, mouse; details: hD1 mice; for Shape of LMA dose-response curve: DETQ up to 240 mg/kg
From the text: Male hD1 mice, 8–10 weeks old (weighing 18 to 25 g at the time of the experiment), were used. Monitoring of mouse LMA took place in transparent plastic shoebox cages having dimensions of 45 × 25 × 20 cm, with a 1-cm depth of wood chips for absorbent bedding, and covered with a ventilated filtered plastic cage top.
Cages were placed in a rectangular frame containing a grid of 12 photocell beams in an 8 × 4 configuration (Kinder Scientific, Poway, CA) that were positioned 2.5 cm from the floor of the cage for the detection of body movements (ambulations), which were recorded by computer for analysis. Mice were placed inside individual LMA boxes for 1 hour during an acclimation period. Mice were then dosed with test compounds (oral or subcutaneous) and were replaced inside individual LMA boxes for the start of LMA. Photocell activity (total ambulations) was collected for 60 minutes using software from Hamilton Kinder (Poway, CA).
Calculation of data based on total ambulations was done using Excel (Microsoft, Redmond, WA). Graphing and statistical analysis of data were done using one-way analysis of variance followed by Dunnett’s multiple comparison test using GraphPad Prism.

human D1 receptor [2] = molecular target: T1, human D1 receptor (Homo sapiens, UniProt P21728); experiment: cAMP response in HEK293 cells stably expressing the human D1 receptor; format: cell-based; details: with 12 nM dopamine; % of window between EC20 dopamine and maximum dopamine response
human D1 receptor [3] = molecular target: T1, human D1 receptor; experiment: D1 receptor internalization (PathHunter, DiscoveRx)
hD1 mice [4] = experiment: Video-tracking of horizontal motion, rearing and grooming in hD1 mice; format: in vivo, mouse
From the text: The apparatus for the video-tracking assessment experiment included 12 custom-built video-tracking observation chambers and the HomeCageScan (CleverSys, Reston, VA) software system. The chambers, measuring (in inches) 8 width × 10 length × 8 height, consisted of two end walls, a back wall, a top, and a floor constructed of ¼-in. translucent white acrylic, and one side (front) constructed of clear acrylic. LED strip lighting was placed below the chamber for illumination. A color video camera (640 × 480, 30 frames per second) was placed in front of each chamber to record behavior from a side view. The chambers were located in large sound-attenuating chambers to reduce ambient room noise and isolate lighting. The cameras were connected in groups of four to a quad multiplexer (model NVQC-42N; Nuvico, Englewood, NJ), with each multiplexer connected to its own computer, which then recorded each session to an MPEG file.
At the end of the experiment the files were batch-analyzed by a computer running the CleverSys CageScan video-tracking software. This software can recognize and quantify several different behaviors, including LMA, grooming, rearing, immobility, and feeding behaviors. The current experiment examined behavior in a novel open-field environment rather than home-cage activity, which limited behaviors of interest to LMA, grooming, and rearing.
For HomeCageScan behavioral phenotyping, male D1 knock-in mice (8–12 weeks, 20–25 g body weight) were placed into the observation chambers for a 60-minute habituation session. […] All behavioral activity was monitored and scored by the HomeCageScan system.

hD1 and wild-type mice = experiment: Seizure observation in mice; format: in vivo, mouse; details: higher doses, unpublished observation
hD1 mice [5] = experiment: Locomotor activity (LMA) in hD1 mice; format: in vivo, mouse; details: nonhabituated hD1 mice, 30 min pretreatment
[6] = with EC20 dopamine, 0% = EC20 dopamine response, 100% = maximum dopamine response

T1 sequence (P21728 whole entry): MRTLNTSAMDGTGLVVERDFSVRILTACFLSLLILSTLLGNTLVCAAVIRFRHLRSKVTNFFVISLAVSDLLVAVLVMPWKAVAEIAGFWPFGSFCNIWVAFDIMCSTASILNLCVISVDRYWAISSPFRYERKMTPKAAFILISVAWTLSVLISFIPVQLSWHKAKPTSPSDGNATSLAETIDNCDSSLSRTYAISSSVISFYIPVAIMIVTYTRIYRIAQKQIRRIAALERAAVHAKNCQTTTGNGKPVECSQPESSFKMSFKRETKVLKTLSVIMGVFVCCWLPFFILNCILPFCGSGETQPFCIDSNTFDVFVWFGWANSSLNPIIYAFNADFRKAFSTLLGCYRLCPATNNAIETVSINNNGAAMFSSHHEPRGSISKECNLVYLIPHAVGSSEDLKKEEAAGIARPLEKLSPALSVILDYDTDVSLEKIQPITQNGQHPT

## Oc1cc2c(cc1O)[C@H]1c3ccccc3CN[C@@H]1CC2 (racemic) [dihydrexidine, reference compound]
hD1 mice [1]
  Shape of LMA dose-response curve: bell-shaped curves

## Cl.NC[C@@H]1O[C@H](C23CC4CC(CC(C4)C2)C3)Cc2c1ccc(O)c2O [A-77636, (1R)-3-(1-adamantyl)-1-(aminomethyl)-3,4-dihydro-1H-isochromene-5,6-diol;hydrochloride, reference compound]
Human D1 receptor [2]
  Top, cAMP, potentiator mode: 121.0%
Human D1 receptor [3]; RA for cAMP divided by RA for internalization
  Pathway Preference cAMP/Internalization: 6.6
Human D1 receptor [3]; top divided by EC50, with 407 nM dopamine
  RA, Internalization: 7.78
Human D1 receptor [3]; [6]
  Bottom, D1 receptor internalization: −12.8%
  Top, D1 receptor internalization: 112.0%
hD1 mice [1]; once daily for 4 days
  LMA response on repeated once-a-day dosing: completely abolished by day 2
hD1 mice [1]
  Shape of LMA dose-response curve: bell-shaped curves
hD1 mice [4]
  Horizontal locomotion and rearing: increase in horizontal locomotion and rearing at lower doses

## CCCc1cc2c(s1)CN[C@@H]1CCc3cc(OC(C)=O)c(OC(C)=O)cc3[C@@H]21 [ABT-431, adrogolide hydrochloride]
hD1 and wild-type mice
  Seizures: induced seizures

## CN1CCc2cc(Cl)c(O)cc2[C@H]2c3ccccc3CC[C@@H]21 [SCH39166, (6aS,13bR)-11-chloro-7-methyl-5,6,6a,8,9,13b-hexahydronaphtho[1,2-a][3]benzazepin-12-ol]
hD1 mice [5]
  Dose that lowered DETQ-stimulated activity: 0.03 mg/kg
  Dose that lowered basal exploratory activity: 0.01 mg/kg

## C=CCN1CCc2c(cc(O)c(O)c2Cl)C(c2ccccc2)C1 (stereo not drawn) [SKF 82958, 9-chloro-5-phenyl-3-prop-2-enyl-1,2,4,5-tetrahydro-3-benzazepine-7,8-diol]
hD1 mice [1]
  Shape of LMA dose-response curve: bell-shaped curves
hD1 mice [4]
  Grooming (index of stereotyped behavior): supplanted by grooming at higher doses
  Horizontal locomotion and rearing: increase in horizontal locomotion and rearing at lower doses
